What was measured:
[1] = test system: cerebellar granule neurons; assay: MTT assay in cerebellar granule neurons; type: cell-based, rat; conditions: 24 h peptide treatment
Protocol: (§1) Cerebellar granule neurons were switched to serum-free medium containing various concentrations of T-peptide, K-peptide, Core-peptide, V-peptide, VV-peptide, and T (L)-peptide. Cell viability was measured using two independent methods 24 h after peptide treatment and results are graphed. * indicates p<0.05 compared with control cells that were treated with HK: (4A) Results from Red/Green viability assay, (4B) Results from MTT assay;
Culturing and treatment of neurons: Cerebellar granule neurons were cultured from 7-8 day old rats as previously described. The neurons were plated in 24-well with poly-L-lysine coated glass coverslips at a density of ˜1 million cells/well in Basal Eagle's Medium with Earle's salts (BME) supplemented with 10% FCS, 25 mM KCl, 2 mM glutamine and […] gentamicin. […]
(§2) Cell viability quantification: Cell viability was quantified using the Live/Dead assays with a commercially available kit (Invitrogen). This is a two-color fluorescence assay utilizing two cell-permeable compounds, calcein acetoxymethyl (calcein AM) and ethidium homodimer-1 (EthD-1). […] Cell viability was also analyzed using the MTT [3-(4,5-Dimethylthiazol-2-yl)-2,5-diphenyltetrazolium bromide] assay based on the evaluation of mitochondrial function. […] Absorbance was measured spectrophotometrically at 570 nm after an overnight incubation at room temperature.

[2] = test system: human embryonic kidney HEK293T cell line; assay: Live/Dead viability assay in HEK293T cell line; type: cell-based; conditions: 24 h, serum-free medium
Protocol: (§3) Primary cultures and cell lines were treated in serum-free medium with T-peptide for 24 hours. Viability was quantified using the Live/Dead assay. * indicates p<0.05 compared with control cells that were treated with serum-free medium without peptide: (6A) Results from the analyses of cerebellar granule neurons, cortical neurons, and kidney fibroblasts cultured from rats, (6B) Results from the HT22 and HEK293 cell lines;
(§4) HT-22 and HEK293 cell culture: HT-22 cells were maintained in DMEM supplemented with 10% FCS, 50 U/ml penicillin and 50 μg/ml streptomycin. HEK293 were maintained in DMEM supplemented with 10% FCS, 50 U/ml penicillin and 50 μg/ml streptomycin. Both cell lines were treated with peptide at 70-80% confluency in serum-free media.
as §2

[3] = test system: kidney fibroblasts; assay: Live/Dead viability assay in primary kidney fibroblasts; type: cell-based, rat; conditions: 24 h, serum-free medium
Protocol: as §3
Cultures of kidney fibroblasts and treatment with peptides: Kidneys were taken for 7-8 day old rats and placed in Dulbecco's Modified Eagle's Medium (DMEM). They were then diced and trypsinized for 8-12 mins. Trypsin was inactivated with trypsin inhibitor and centrifuged at 500 g for 1 min. Pellets were resuspended in DMEM and broken-up with a pasteur pipette 25 times, then centrifuged at 1000 g rpm for 1 min. […]
as §2

[4] = test system: cerebellar granule neurons; assay: Live/Dead (Red/Green) viability assay in cultured cerebellar granule neurons; type: cell-based, rat
Protocol: Neuronal cultures were switched to serum-free medium T-peptide, K-peptide, Core-peptide, V-peptide. VV-peptide, and T (L)-peptide. All peptides were used at 25 μM concentration. Phase contrast micrographs show appearance of the cultures after 24 h of peptide treatment. The Live/Dead viability assay was also performed. Nuclei of dead cells are stained red whereas cytoplasm of living cells are stained green. In the case of sick and dying cells, green staining is condensed;
as §1
Culturing and treatment of neurons: Cerebellar granule neurons were cultured from 7-8 day old rats as previously described. The neurons were plated in 24-well with poly-L-lysine coated glass coverslips at a density of ˜1 million cells/well in Basal Eagle's Medium with Earle's salts (BME) supplemented with 10% FCS, 25 mM KCl, 2 mM glutamine and […] gentamicin. To prevent mitosis of glial cells, cytosine arabinofuranoside ([…]) was added to culture 16-20 hrs after plating. Neuronal cultures were treated with peptides 6-7 days after plating. For treatment, the cultures were switched to serum-free medium containing 25 mM KCl (referred to as high potassium or HK medium). Although serum is required for proper maturation, after 5 days in culture, the neurons survive normally in the absence of serum provided depolarizing levels of KCl is added.
Cell viability quantification: Cell viability was quantified using the Live/Dead assays with a commercially available kit (Invitrogen). This is a two-color fluorescence assay utilizing two cell-permeable compounds, calcein acetoxymethyl (calcein AM) and ethidium homodimer-1 (EthD-1). Live cells have intracellular esterases that convert non-fluorescent calcein AM to the intensely green fluorescent calcein, which is retained within the cytoplasm of cells. Because dead cells have damaged membranes, EthD-1 enters and is fluorescent when bound to nucleic acids. EthD-1 stains the nuclei of damaged or dead cells. As recommended by the manufacturer, cells plated in wells with cover-slips were incubated in Live/Dead reagent (1 uM calcein AM and 4 uM EthD-1) for 30 min, and then mounted on slides. Cell viability was also analyzed using the MTT [3-(4,5-Dimethylthiazol-2-yl)-2,5-diphenyltetrazolium bromide] assay based on the evaluation of mitochondrial function. MTT assays were performed as previously described. Briefly, MTT (5 mg/ml in culture medium) was added to the culture medium and the cells incubated at 37° C. for 1 h. The assay was stopped by adding lysis buffer [20% sodium dodecyl sulfate (SDS) in 50% N,N-dimethylformamide, pH 4.7]. Absorbance was measured spectrophotometrically at 570 nm after an overnight incubation at room temperature.

[5] = test system: Primary glial cells; assay: T-peptide toxicity in primary glial cells; type: cell-based; conditions: data not shown
[6] = test system: cortical neurons; assay: Live/Dead viability assay in cortical neurons; type: cell-based; conditions: 24 h, serum-free medium
Protocol: as §3
as §2, with “(EthD-1). Live cells have intracellular esterases that convert non-fluorescent calcein AM to the intensely green fluorescent calcein, which is retained within the cytoplasm of cells. Because dead cells have damaged membranes, EthD-1 enters and is fluorescent when bound to nucleic acids. EthD-1 stains the nuclei of damaged or dead cells.” for “(EthD-1).”

[7] = Live/Dead viability assay in HT-22 cell line; type: cell-based; conditions: 24 h, serum-free medium
Protocol: as §3, §4, §2

[8] = test system: adult rat brains; assay: Stereotaxic injection of peptide into adult rat brain; type: in vivo
Excerpt: Other aggregating peptides unrelated to tau are not neurotoxic. […] To examine this issue, we synthesized two peptides, STVIIE-R9 (designated at ST peptide), previously described by Pastor et al. (Pastor et al., 2008) and another de novo peptide, SQIVYA-R9. We were able to follow the kinetics of aggregation of both peptides into amyloid forming structures using the fluorescence of thioflavin-S and we characterized their morphology by TEM. […] Peptide induces neurodegeneration in the intact rat brain. […] To examine this issue, […] of T-peptide and K-peptide was sterotaxically injected into adult rat brains. Each animal received 2 injections—on one side into the striatum, and on the other side into the hippocampus. Rats were analyzed 1 week later. […] No damage is seen in the hippocampus however.

CC[C@@H](C)[C@@H](NC(=O)[C@@H](CCC(N)=O)NC(=O)[C@H](NC(C)=O)C(C)C)C(=O)N[C@@H](C(=O)N[C@H](Cc1ccc(O)cc1)C(=O)N[C@H](CCCCN)C(=O)N[C@@H](CCCNC(=N)N)C(=O)N[C@@H](CCCNC(=N)N)C(=O)N[C@@H](CCCNC(=N)N)C(=O)N[C@@H](CCCNC(=N)N)C(=O)N[C@@H](CCCNC(=N)N)C(=O)N[C@@H](CCCNC(=N)N)C(=O)N[C@@H](CCCNC(=N)N)C(=O)N[C@@H](CCCNC(=N)N)C(=O)N[C@@H](CCCNC(=N)N)C(N)=O)C(C)C [T-peptide, Ac-vqivyk-R9—NH2]
MTT assay result (mitochondrial function, words) [1]: confirmed using the MTT assay | doses up to which the cell line is resistant [2]: up to 50 μM | sensitivity to T-peptide toxicity relative to neuronal cell types [3]: much less sensitive | doses at which significant death is observable ([4]; 24 h, serum-free HK medium): ≥ 5 µM | neurotoxicity / effect on neuronal survival ([4]; 24 h peptide treatment, HK medium): induces cell death in a concentration-dependent manner | sensitivity to T-peptide toxicity relative to neurons [5]: less sensitive than neurons | sensitivity to T-peptide induced toxicity relative to cerebellar granule neurons [6]: slightly less sensitive | sensitivity to T-peptide toxicity [7]: moderate level of sensitivity | brain damage compared with K-peptide-injected rats ([8]; 200 mg injected into striatum and hippocampus, analyzed 1 week later): display more damage than K-peptide-injected rats | damage in corpus callosum ([8]; 200 mg injected, 1 week): shows damage and scarring | damage in hippocampus ([8]; 200 mg injected, 1 week): does not seem to show much damage | damage in striatum ([8]; 200 mg injected, 1 week): shows obvious damage | lateral ventricle ([8]; 200 mg injected, 1 week): enlarged
